Assays:
phosphorylated MEK1 = phosphorylated MEK1 (Homo sapiens, UniProt Q02750); experiment: MEK1 binding assay (HTRF, tracer displacement); conditions: for inhibition at 2 µM: read-out: % binding (2 µM); for inhibition at 20 µM: read-out: % binding (20 µM); for IC50: HTRF binding to GST tagged phosphorylated MEK1, read-out: IC50
Method: The homogeneous time resolved fluorescence (HTRF) assay was performed on a Proxiplate-384 F plus solid back plate (Perkin Elmer, Waltham, MA. USA) with 5 nM GST tagged phosphorylated MEK1 (GST-MEK1), 2 nM europium-labeled anti-GST antibody (Eu-anti-GST), 20 nM kinase tracer 236 and test compound at a variety of concentrations. In the reaction mixture, GST-MEK1 forms a complex with the Eu-anti-GST and the tracer. Excitation of europium (the donor) using a 340-nm excitation filter results in energy transfer to the fluorophore of the tracer. This energy transfer is detected by an increase in the fluorescence emission of the tracer at 665 nm and a decrease in the fluorescence emission of europium at 615 nm. The FRET ratio was calculated by dividing the emission signal at 665 nm by the emission signal at 615 nm. A competitor compound such as a MEK inhibitor replaces the tracer from the complex and decreases the FRET ratio accordingly. The plate was incubated in dark at room temperature for 30 min before measuring the fluorescent emission of each well at 665 and 615 nm using a 340-nm excitation filter, 100-µs delay time, and 200-µs integration time, on a PHERAStar plate reader (BMG Labtech, Durham, NC, USA). […] Data shown as %Inhibition normalized to AZD6244 at 100 µM.

Chain of phosphorylated MEK1 (Q02750 whole entry): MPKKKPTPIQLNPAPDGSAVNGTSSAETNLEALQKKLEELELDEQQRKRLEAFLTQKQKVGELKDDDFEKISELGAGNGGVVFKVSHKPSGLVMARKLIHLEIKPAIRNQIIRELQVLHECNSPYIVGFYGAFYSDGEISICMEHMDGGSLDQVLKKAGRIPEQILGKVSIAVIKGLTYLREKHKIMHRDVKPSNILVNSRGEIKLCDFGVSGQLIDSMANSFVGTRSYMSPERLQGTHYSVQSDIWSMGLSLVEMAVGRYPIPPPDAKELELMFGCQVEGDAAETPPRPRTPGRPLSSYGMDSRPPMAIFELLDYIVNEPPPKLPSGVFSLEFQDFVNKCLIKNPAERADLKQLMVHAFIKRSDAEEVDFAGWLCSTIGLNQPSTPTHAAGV

| SMILES | inhibition at 2 µM (phosphorylated MEK1) [%] | inhibition at 20 µM (phosphorylated MEK1) [%] | melting point [°C] | IC50 (phosphorylated MEK1) [µM] | binding affinity (in words) (phosphorylated MEK1) | inhibition at 100 µM (phosphorylated MEK1) [%] |
| --- | --- | --- | --- | --- | --- | --- |
| CCCCC(=O)Oc1ccc2c(CC)c(Cc3ccccc3)c(=O)oc2c1 [Compound 50, 3-Benzyl-4-ethyl-2-oxo-2H-chromen-7-yl pentanoate] | 37.2 | 43.2 | 72 to 73 |  |  |  |
| CCc1c(Cc2ccccc2)c(=O)oc2cc(OC(=O)C(C)(C)C)ccc12 [Compound 57, 3-Benzyl-4-ethyl-2-oxo-2H-chromen-7-yl pivalate] | 6.61 | 21 | 105 to 106 |  |  |  |
| COc1ccc2c(C(=O)O)c(C(=O)c3ccccc3)c(=O)oc2c1 [Compound 89, 3-Benzoyl-4-carboxy-7-methoxycoumarin] | 16.5 | 6.34 | 196 to 197 |  |  |  |
| CCCCC(=O)Oc1ccc2c(CCC)c(Cc3ccc(F)cc3)c(=O)oc2c1 [Compound 54, 3-(4-Fluorobenzyl)-2-oxo-4-propyl-2H-chromen-7-yl pentanoate] | 11.7 | 23.9 | 68 to 70 |  |  |  |
| CCC(=O)Oc1ccc2c(C)c(Cc3ccccc3)c(=O)oc2c1 [Compound 35, 3-Benzyl-4-methyl-2-oxo-2H-chromen-7-yl propionate] | 64.5 | 85 | 118 to 119 | 1.03 |  |  |
| CCN(CC)C(=O)Oc1ccc2c(C)c(Cc3ccc(F)cc3)c(=O)oc2c1 [Compound 24, 3-(4-Fluorobenzyl)-4-methyl-2-oxo-2H-chromen-7-yl diethylcarbamate] | 22.3 | 27.8 | 101 to 102 |  |  |  |
| CCCC(=O)Oc1ccc2c(C)c(Cc3ccc(F)cc3)c(=O)oc2c1 [Compound 45, 3-(4-Fluorobenzyl)-4-methyl-2-oxo-2H-chromen-7-yl butyrate] | 45.3 | 72.3 | 85 to 86 | 0.825 |  |  |
| CCc1c(Cc2ccc(F)cc2)c(=O)oc2cc(O)ccc12 [Compound 4g, 4-Ethyl-3-(4-fluorobenzyl)-7-hydroxy-2H-chromen-2-one] | 10.9 | 19.6 | 131 to 132 |  |  |  |
| O=C(c1ccccc1)c1cc2ccc(O)cc2oc1=O [Compound 85, 3-Benzoyl-7-hydroxycoumarin] | 23 | 20.5 |  |  |  |  |
| Cc1ccc(S(=O)(=O)Oc2cc3oc(=O)c(Cc4ccccc4)c(C)c3cc2Cl)cc1 [Compound 77, 3-Benzyl-6-chloro-4-methyl-2-oxo-2H-chromen-7-yl 4-methylbenzenesulfonate] | 31.7 | 29.6 | 173 to 174 |  |  |  |
| CCCc1c(Cc2ccccc2)c(=O)oc2cc(OC(=O)CC)ccc12 [Compound 37, 3-Benzyl-2-oxo-4-propyl-2H-chromen-7-yl propionate] | 19.4 | 38.8 | 120 to 121 |  |  |  |
| CCCc1c(Cc2ccccc2)c(=O)oc2cc(OS(=O)(=O)c3ccc(C)cc3)ccc12 [Compound 79, 3-Benzyl-2-oxo-4-propyl-2H-chromen-7-yl 4-methylbenzenesulfonate] | 24.6 | 11.7 |  |  |  |  |
| CCCc1c(Cc2ccc(F)cc2)c(=O)oc2cc(OC(=O)N(CC)CC)ccc12 [Compound 26, 3-(4-Fluorobenzyl)-2-oxo-4-propyl-2H-chromen-7-yl diethylcarbamate] | 35.2 | 37.5 | 51 to 52 |  |  |  |
| CCCCC(=O)Oc1cc2oc(=O)c(Cc3ccccc3)c(C)c2cc1Cl [Compound 49, 3-Benzyl-6-chloro-4-methyl-2-oxo-2H-chromen-7-yl pentanoate] | 8.15 | 20.3 | 108 to 109 |  |  |  |
| CCc1c(Cc2ccc(F)cc2)c(=O)oc2cc(OS(=O)(=O)c3ccc(C)cc3)ccc12 [Compound 80, 4-Ethyl-3-(4-fluorobenzyl)-2-oxo-2H-chromen-7-yl 4-methylbenzenesulfonate] | 33.1 | 16.5 |  |  | inactive |  |
| CCc1c(Cc2ccccc2)c(=O)oc2cc(O)ccc12 [Compound 4d, 3-Benzyl-4-ethyl-7-hydroxy-2H-chromen-2-one] | 27 | 10.4 | 140 to 141 |  |  |  |
| CCc1c(Cc2ccccc2)c(=O)oc2cc(OS(=O)(=O)c3ccccc3)ccc12 [Compound 71, 3-Benzyl-4-ethyl-2-oxo-2H-chromen-7-yl benzenesulfonate] | 31.1 | -2.35 |  |  |  |  |
| CCCC(=O)Oc1ccc2c(CC)c(Cc3ccc(F)cc3)c(=O)oc2c1 [Compound 46, 4-Ethyl-3-(4-fluorobenzyl)-2-oxo-2H-chromen-7-yl butyrate] | 76.9 | 96.5 | 79 | 0.909 | active |  |

| SMILES | inhibition at 2 µM (phosphorylated MEK1) [%] | inhibition at 20 µM (phosphorylated MEK1) [%] | melting point [°C] | IC50 (phosphorylated MEK1) [µM] | binding affinity (in words) (phosphorylated MEK1) | inhibition at 100 µM (phosphorylated MEK1) [%] |
| --- | --- | --- | --- | --- | --- | --- |
| COc1ccc2cc(Cc3ccc(F)cc3)c(=O)oc2c1 [Compound 84, 3-(4-Fluorobenzyl)-7-methoxy-2H-chromen-2-one] | 17.6 | 15.4 | 94 to 95 |  |  |  |
| CCN(CC)C(=O)Oc1cc2oc(=O)c(Cc3ccccc3)c(C)c2cc1Cl [Compound 21, 3-Benzyl-6-chloro-4-methyl-2-oxo-2H-chromen-7-yl diethylcarbamate] | 27 | 48.1 | 83 to 84 |  |  |  |
| CCCCC(=O)Oc1ccc2c(C)c(Cc3ccc(F)cc3)c(=O)oc2c1 [Compound 53, 3-(4-Fluorobenzyl)-4-methyl-2-oxo-2H-chromen-7-yl pentanoate] | 34.7 | 38.3 | 83 to 84 |  |  |  |
| CN(C)C(=O)Oc1ccc2cc(Cc3ccccc3)c(=O)oc2c1 [Compound 12, 3-benzyl-7-N,N-dimethylcarbamoyloxyl-2H-chromen-2-one] | 31.6 | 25.6 |  |  | disappearance of affinity |  |
| CCN(CC)C(=O)Oc1ccc2c(C)c(Cc3ccccc3)c(=O)oc2c1 [Compound 20, 3-Benzyl-4-methyl-2-oxo-2H-chromen-7-yl diethylcarbamate] | 15.5 | 20 | 109 |  |  |  |
| Cc1c(Cc2ccc(F)cc2)c(=O)oc2cc(OS(=O)(=O)c3ccccc3)ccc12 [Compound 74, 3-(4-Fluorobenzyl)-4-methyl-2-oxo-2H-chromen-7-yl benzenesulfonate] | 21.4 | 17 |  |  |  |  |
| CCc1c(Cc2ccccc2)c(=O)oc2cc(OS(=O)(=O)c3ccc(C)cc3)ccc12 [Compound 78, 3-Benzyl-4-ethyl-2-oxo-2H-chromen-7-yl 4-methylbenzenesulfonate] | 33.2 | 4.76 |  |  |  |  |
| Cc1c(Cc2ccccc2)c(=O)oc2cc(O)c(Cl)cc12 [Compound 4c, 3-Benzyl-6-chloro-7-hydroxy-4-methyl-2H-chromen-2-one] | 15.8 | 5.1 |  |  |  |  |
| CCCc1c(Cc2ccccc2)c(=O)oc2cc(OS(=O)(=O)c3ccccc3)ccc12 [Compound 72, 3-Benzyl-2-oxo-4-propyl-2H-chromen-7-yl benzenesulfonate] | 26 | 14 |  |  |  |  |
| Cn1cnc2c(F)c(Nc3ccc(Br)cc3Cl)c(C(=O)NOCCO)cc21 [AZD6244, reference compound] |  |  |  |  |  | 100 |
| CCCc1c(Cc2ccc(F)cc2)c(=O)oc2cc(OS(=O)(=O)c3ccccc3)ccc12 [Compound 75, 3-(4-Fluorobenzyl)-2-oxo-4-propyl-2H-chromen-7-yl benzenesulfonate] | 21.6 | 13.8 |  |  |  |  |
| CCc1c(Cc2ccc(F)cc2)c(=O)oc2cc(OS(=O)(=O)c3ccccc3)ccc12 [Compound 73, 4-Ethyl-3-(4-fluorobenzyl)-2-oxo-2H-chromen-7-yl benzenesulfonate] | 16.6 | 7.4 |  |  | inactive |  |
| CCCc1c(Cc2ccc(F)cc2)c(=O)oc2cc(OS(=O)(=O)c3ccc(C)cc3)ccc12 [Compound 82, 3-(4-Fluorobenzyl)-2-oxo-4-propyl-2H-chromen-7-yl 4-methylbenzenesulfonate] | 37.5 | 45.9 |  |  |  |  |
| Cc1c(Cc2ccccc2)c(=O)oc2cc(O)ccc12 [Compound 4b, 3-Benzyl-7-hydroxy-4-methyl-2H-chromen-2-one] | -0.81 | -6.03 |  |  |  |  |
| Cc1c(Cc2ccccc2)c(=O)oc2cc(OS(=O)(=O)c3ccccc3)c(Cl)cc12 [Compound 70, 3-Benzyl-6-chloro-4-methyl-2-oxo-2H-chromen-7-yl benzenesulfonate] | 29.9 | 24.5 |  |  |  |  |
| N#Cc1c(C(=O)c2ccccc2)c(=O)oc2cc(O)ccc12 [Compound 87, 3-Benzoyl-4-cyano-7-hydroxycoumarin] | 31.9 | 30 |  |  |  |  |
| Cc1c(Cc2ccccc2)c(=O)oc2cc(OS(=O)(=O)c3ccccc3)ccc12 [Compound 69, 3-Benzyl-4-methyl-2-oxo-2H-chromen-7-yl benzenesulfonate] | -11.3 | 2.32 |  |  |  |  |

— article PMC6269873, “Substituted 3-Benzylcoumarins as Allosteric MEK1 Inhibitors: Design, Synthesis and Biological Evaluation as Antiviral Agents” (Molecules, 2013)
